The test has as its system CD2F1 mice, L1210 leukemia sc, survival T/C. The experiment in a line: NCI In Vivo Anticancer Drug Screen. Data for tumor model L1210 Leukemia (subcutaneous) in CD2F1 (CDF1) mice. The settings on record: endpoint: median survival time, higher = longer survival. In a few lines: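 Read-out: survival or tumor size. Value = treated (T) / vehicle control (C). Transplantable tumor in mice.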

Several values for one entry are separate records, joined by “and”; a condition that tells them apart may be missing. Equal values may be shown once. Toxic doses and inconclusive results are not listed. Starred links: 1 amine or outer side, 2 acyl side, 3 side chain; linkers in the order of their positions; H or OH if unused. Positions of bridges follow the written chain, without caps; N, C: chain ends. Non-standard residues stand in square brackets, D forms with d. Residues, ends and D or L forms follow the SMILES beside them. Chains are numbered I, II in the order given. Actinocin(9to1) = Cc1c2oc3c(C)ccc(C(=O)[*:1])c3nc-2c(C(=O)[*:2])c(N)c1=O; aThr = C[C@H](O)[C@H](N)C(=O)O; NMeV = CN[C@H](C(=O)O)C(C)C; Sar = CNCC(=O)O

From PubChem BioAssay AID258 (DTP/NCI, 2004) come the findings set out here.

As to `Cc1c2oc3c(C)ccc(C(=O)N[C@@H]4C(=O)N[C@H](C(C)C)C(=O)N5CCC[C@H]5C(=O)N(C)CC(=O)N(C)[C@@H](C(C)C)C(=O)O[C@H]4C)c3nc-2c(C(=O)N[C@@H]2C(=O)N[C@H](C(C)C)C(=O)N3CCC[C@H]3C(=O)N(C)CC(=O)N(C)[C@@H](C(C)C)C(=O)O[C@H]2C)c(N)c1=O` (I: [aThr][dV]P[Sar][NMeV] / II: [aThr][dV]P[Sar][NMeV]; ester I:1-I:C, II:1-II:C; linker I:N-II:N via Actinocin(9to1)), the T/C (dose: 0.05 mg/kg/injection, schedule: Q01DX009 (sc), vehicle: saline) was 101 % of control; the T/C (dose: 0.05 mg/kg/injection, schedule: Q01DX Z (sc), vehicle: other) was 108 % of control and 100 % of control; the T/C (dose: 0.05 mg/kg/injection, schedule: Q01DX Z (sc), vehicle: saline) was 100 % of control; the T/C (dose: 0.08 mg/kg/injection, schedule: Q01DX Z (sc), vehicle: other) was 112 % of control; the T/C (dose: 0.08 mg/kg/injection, schedule: Q07DX Z (sc), vehicle: other) was 100 % of control; the T/C (dose: 0.09 mg/kg/injection, schedule: Q01DX Z (sc), vehicle: other) is 116 % of control. In addition, the T/C reads like this: (dose: 0.1 mg/kg/injection, schedule: Q01DX009 (sc), vehicle: saline) 113 % of control; (dose: 0.13 mg/kg/injection, schedule: Q01DX009 (sc), vehicle: saline) 122 % of control; (dose: 0.14 mg/kg/injection, schedule: Q07DX Z (sc), vehicle: other) 112 % of control; (dose: 0.15 mg/kg/injection, schedule: Q01DX009 (sc), vehicle: saline) 120 % of control; (dose: 0.2 mg/kg/injection, schedule: Q01DX009 (sc), vehicle: saline) 105 % of control and 113 % of control; (dose: 0.23 mg/kg/injection, schedule: Q07DX Z (sc), vehicle: other) 112 % of control. In addition, the T/C is 93 % of control (dose: 0.25 mg/kg/injection, schedule: Q01DX009 (sc), vehicle: saline); 95 % of control (dose: 0.3 mg/kg/injection, schedule: Q01DX009 (sc), vehicle: saline); 112 % of control (dose: 0.39 mg/kg/injection, schedule: Q07DX Z (sc), vehicle: other); 116 % of control (dose: 0.42 mg/kg/injection, schedule: Q01DX Z (sc), vehicle: other); 112 % of control (dose: 0.7 mg/kg/injection, schedule: Q01DX Z (sc), vehicle: other); 100 % of control (dose: 1.17 mg/kg/injection, schedule: Q01DX Z (sc), vehicle: other). The T/C is, setting by setting: (dose: 12.0 micrograms/kg/injection, schedule: Q01DX009 (ip), vehicle: saline) 101 % of control; (dose: 12.0 micrograms/kg/injection, schedule: Q01DX009 (sc), vehicle: saline) 101 % of control; (dose: 25.0 micrograms/kg/injection, schedule: Q01DX009 (ip), vehicle: saline) 102 % of control; (dose: 25.0 micrograms/kg/injection, schedule: Q01DX009 (sc), vehicle: saline) 100 % of control; (dose: 50.0 micrograms/kg/injection, schedule: Q01DX009 (ip), vehicle: saline) 98 % of control; (dose: 50.0 micrograms/kg/injection, schedule: Q01DX009 (sc), vehicle: saline) 101 % of control. For the same compound, the T/C reads like this: (dose: 100.0 micrograms/kg/injection, schedule: Q01DX009 (ip), vehicle: saline) 113 % of control; (dose: 100.0 micrograms/kg/injection, schedule: Q01DX009 (sc), vehicle: saline) 103 % of control and 119 % of control; (dose: 200.0 micrograms/kg/injection, schedule: Q01DX009 (ip), vehicle: saline) 107 % of control; (dose: 200.0 micrograms/kg/injection, schedule: Q01DX009 (sc), vehicle: saline) 114 % of control and 118 % of control; (dose: 400.0 micrograms/kg/injection, schedule: Q01DX009 (sc), vehicle: saline) 112 % of control and 86 % of control.

On to `COc1ccc2c(c1OC)C(=O)O[C@@H]2[C@H]1c2c(cc3c(c2OC)OCO3)CCN1C`, for which the T/C by setting is: (dose: 14.0 mg/kg/injection, schedule: Q01DX Z (sc), vehicle: water) 100 % of control; (dose: 23.0 mg/kg/injection, schedule: Q01DX Z (sc), vehicle: water) 100 % of control; (dose: 39.0 mg/kg/injection, schedule: Q01DX Z (sc), vehicle: water) 100 % of control; (dose: 65.0 mg/kg/injection, schedule: Q01DX Z (sc), vehicle: water) 100 % of control; (dose: 108.0 mg/kg/injection, schedule: Q01DX Z (sc), vehicle: water) 100 % of control; (dose: 180.0 mg/kg/injection, schedule: Q01DX Z (sc), vehicle: water) 100 % of control. Also, the T/C was 100 % of control (dose: 300.0 mg/kg/injection, schedule: Q01DX Z (sc), vehicle: water) and 100 % of control (dose: 500.0 mg/kg/injection, schedule: Q01DX Z (sc), vehicle: water).

In the case of `COc1cc2c(c(OC)c1OC)-c1ccc(N)c(=O)cc1[C@@H](NC(C)=O)CC2`, the T/C is 90 % of control (dose: 1.0 mg/kg/injection, schedule: Q01DX Z (sc), vehicle: water); 109 % of control (dose: 2.0 mg/kg/injection, schedule: Q01DX Z (sc), vehicle: water); 109 % of control (dose: 4.0 mg/kg/injection, schedule: Q01DX Z (sc), vehicle: water); 109 % of control (dose: 8.0 mg/kg/injection, schedule: Q01DX Z (sc), vehicle: water); 109 % of control (dose: 16.0 mg/kg/injection, schedule: Q01DX Z (sc), vehicle: water).

Consider `CS(=O)(=O)OCCCCCCCCCOS(C)(=O)=O`, for which the T/C (dose: 47.0 mg/kg/injection, schedule: Q01DX Z (sc), vehicle: carboxymethylcellulose (CMC)) was 112 % of control.

As to `O=NN(CCCl)C(=O)NC12CC3CC(CC(C3)C1)C2`, the T/C is, setting by setting: (dose: 6.25 mg/kg/injection, schedule: Q01DX Z (sc), vehicle: carboxymethylcellulose (CMC)) 100 % of control; (dose: 12.5 mg/kg/injection, schedule: Q01DX Z (sc), vehicle: carboxymethylcellulose (CMC)) 100 % of control; (dose: 25.0 mg/kg/injection, schedule: Q01DX Z (sc), vehicle: carboxymethylcellulose (CMC)) 110 % of control; (dose: 50.0 mg/kg/injection, schedule: Q01DX Z (sc), vehicle: carboxymethylcellulose (CMC)) 325 % of control; (dose: 100.0 mg/kg/injection, schedule: Q01DX Z (sc), vehicle: carboxymethylcellulose (CMC)) 240 % of control.

On to `O=C(Nc1cccnc1)c1ccc([N+](=O)[O-])s1`, for which the T/C is, setting by setting: (dose: 25.0 mg/kg/injection, schedule: Q01DX005 (ip), vehicle: saline) 108 % of control; (dose: 50.0 mg/kg/injection, schedule: Q01DX005 (ip), vehicle: saline) 102 % of control; (dose: 100.0 mg/kg/injection, schedule: Q01DX005 (ip), vehicle: saline) 111 % of control.

For the compound `CC(=O)NNC(=O)c1ccccn1`, the T/C is, setting by setting: (dose: 12.5 mg/kg/injection, schedule: Q01DX009 (ip), vehicle: Klucel (hydroxypropylcellulose) (HPC)) 102 % of control; (dose: 25.0 mg/kg/injection, schedule: Q01DX009 (ip), vehicle: Klucel (hydroxypropylcellulose) (HPC)) 102 % of control; (dose: 25.0 mg/kg/injection, schedule: Q01DX009 (ip), vehicle: saline) 102 % of control; (dose: 25.0 mg/kg/injection, schedule: Q01DX009 (sc), vehicle: saline) 98 % of control; (dose: 50.0 mg/kg/injection, schedule: Q01DX009 (ip), vehicle: Klucel (hydroxypropylcellulose) (HPC)) 105 % of control; (dose: 50.0 mg/kg/injection, schedule: Q01DX009 (ip), vehicle: saline) 104 % of control. Besides, the T/C (dose: 50.0 mg/kg/injection, schedule: Q01DX009 (sc), vehicle: saline) is 105 % of control and 109 % of control; the T/C (dose: 100.0 mg/kg/injection, schedule: Q01DX009 (ip), vehicle: Klucel (hydroxypropylcellulose) (HPC)) was 113 % of control; the T/C (dose: 100.0 mg/kg/injection, schedule: Q01DX009 (ip), vehicle: saline) was 106 % of control; the T/C (dose: 100.0 mg/kg/injection, schedule: Q01DX009 (sc), vehicle: saline) is 110 % of control and 113 % of control; the T/C (dose: 200.0 mg/kg/injection, schedule: Q01DX009 (ip), vehicle: Klucel (hydroxypropylcellulose) (HPC)) is 112 % of control; the T/C (dose: 200.0 mg/kg/injection, schedule: Q01DX009 (ip), vehicle: saline) is 114 % of control. Further, the T/C (dose: 200.0 mg/kg/injection, schedule: Q01DX009 (sc), vehicle: saline) was 111 % of control and 119 % of control.
